Data as given in patent US20040006094A1, “4-pyrimidinamine derivatives, pharmaceutical compositions and related methods” (priority 2000, published 2004).
pIC50, pKi: −log10 of the molar value.

Columns and labels:
[1] = biological target: NMDA receptor (Mus musculus, UniProt P35436+P35438+Q01097); settings: P19 membranes, concentration-dependent
Method: MK-801 inhibition of [^3H]-MK-801 binding was assayed in P19 membranes. MK-801 concentrations are expressed as 10^−x Molar. Data points represent the mean±standard error from eight experiments. % control=((CPM−CPMbottom)/(CPMtop−CPMbottom))×100.

[2] = tested on: Male Wistar rats; assay: Transient model of cerebral ischemia in rats (lesion volume); format: in vivo, rat; settings: 3 mg/kg, i.p., 1 hr post ischemia onset; 24 h; average of 12
Method: Male Wistar rats (Iffa Crédo, France), weighing 250-300 g, were housed 2 per cage under a light-dark cycle of 12 hr-12 hr (light on at 7:00 a.m., off at 7:00 p.m.) at a room temperature of 21±2° C., with 50±15% humidity, for a minimum of 5 days before the experiments. During this time, the rats had free access to commercial rat chow (Trouw Nutrition France, Vigny, France, ref. 811002) and tap water.
The animals were anaesthetized with 5% halothane in air for induction, then 1-2% halothane during surgery. The rat's body temperature was maintained at 37° C. with a heating pad. A 2 cm incision was made at the center of the neck and the right common carotid artery (CCA), external carotid artery (ECA) and internal carotid artery (ICA) were exposed under an operating microscope. The ICA was further dissected to identify the pterygopalatine artery (PA) branch and the intracranial ICA branch. The CCA was ligated. A 3-0 silk suture was tied at the origin of the ECA and ligated. A catheter (id=0.58 mm) was introduced into the CCA through a small puncture and advanced to the intracranial branch of the ICA. A 4-0 surgical nylon suture was introduced into the catheter. A length of approximately 19 mm of nylon suture was gently advanced from the CCA into the lumen of the ICA until the suture blocked the origin of the MCA. The suture was sealed into the catheter by heat, leaving 1 cm of catheter protruding so the suture could be withdrawn to allow reperfusion. The incision was closed using skin clips. Anaesthesia was then terminated and the animals were placed under heat lamps until recovery from anaesthesia. The rats awakened 10-15 min later. After 2 hr of ischemia, reperfusion was performed by withdrawal of the suture until the tip cleared the ICA lumen. Vehicle or test compound was administered intraperitoneally (i.p.) or intravenously (i.v.) at 1 hr post ischemia onset.
24 h after the onset of occlusion, the rats were killed by decapitation. The brains were immediately removed, frozen in isopentane and stored at −20° C. The brains were then cut in 20 μm thick sections in a cryocut. Every 20th slice was used to measure infarct area. The sections were stained with cresyl violet and the areas of infarct in the striatum and cortex were determined by planimetry using an image analysis software (Image, NIH) after digitalization of the section images.
Following the procedure described above, MK-801, compound #46 and compound #264 (as listed in the Tables herein) were evaluated for neuroprotective effects in rats with results as listed in Table VIII. The data represent average lesion volume in mm^3 for 12 measurements. Vehicle used was 15% solutol in 5% dextrose.

[3] = tested on: differentiated P19 neurons; assay: Differentiated P19 excitotoxicity assay: neuroprotection by known kinase inhibitors against glutamate/glycine (Alamar Blue, CFDA); format: cell-based, murine; settings: for pIC50: read-out: IC50 for Neuroprotection [lower-upper 95% C.I.]
Method: Data points are the average±standard error of three separate experiments.
These cells were used to measure the effects of various known kinase inhibitors (Compound Identification (ID) column in Table I) upon cytotoxicity-induced by NMDA. First, P19 cells were differentiated as described in Example 2. Then cells were exposed to 3 mM of glutamate in the presence of 1 mM glycine.
Cell viability was determined. Compounds that prevented excitotoxicity were determined by measuring the percentage of viable cells compared to differentiated P19 cells that were not presented with a toxic insult (Table I).
Cell viability was measured using two methods. The first method was a confocal, single-cell fluorescence imaging-based method using the live cell dye carboxy-fluorescein diacetate (CFDA). CFDA labels the cell bodies and processes of living cells. […] CFDA fluorescence was measured using a modified Attofluor Imager device (Atto Instruments, Rockville Pike, Md.). Cells were labeled with 1 uM CFDA for 15 min in media, then placed onto the stage of the Attofluor microscope. The dye was excited by light from a mercury lamp source passed through a 488 nm bandpass filter of 10 nm band width, passed through a CARV real-time confocal spinning disk module (Atto Instruments, Rockville, Md.), and then passed through a 40×oil immersion objective (Zeiss Fluar, NA=1.3). Emitted light was transmitted through a 495 nm dichroic mirror, collected to an Attofluor intensified CCD camera, and images were visualized using Attofluor Ratio Vision software (Atto Instruments, Rockville, Md.).
The second method for measuring cell viability was a plate reader method. Cells plated into black 96 well plates (Packard viewplates) were loaded with 5% Alamar Blue dye (Biosource International). Alamar Blue is a dye that takes advantage of mitochondrial reductases to convert non-fluorescent resazurin to fluorescent resorufin (excitation 535 nm, emission 580 nm). Baseline fluorescence counts were read at room temperature in a Wallac plate reader immediately after addition of Alamar blue. Fluorescence counts of cell viability were taken the same way after 1 hour incubation at 37° C. Fluorescence was expressed as a percent of control, untreated cells after subtraction of background fluorescence. Live/dead cells were confirmed visually with a light microscope.
Kinase inhibition activities and potencies were derived from the literature (Chijiwa et al. 1990; Favata et al. 1998; Henry et al. 1998; Inhorn and Majerus 1987; Kobayashi et al. 1989; Lee et al. 1994; Onoda et al. 1989; Tokumitsu et al. 1990). […] Curves were fit, and confidence intervals were determined using GraphPad Prism software.

[4] = tested on: NMDA receptor-mediated intracellular calcium response; assay: Fura-2 imaging of glutamate/glycine-induced intracellular calcium response in P19 neurons; format: cell-based, murine; settings: 100 μM MK-801, 24 hours prior to assay; 3 mM glutamate, 1 mM glycine
Method: MK-801 was administered 24 hours prior to assay. […] MK-801 concentrations are expressed as 10^−x Molar. […] (FIG. 1B).
U0126 was administered concurrently with glutamate and glycine.

[5] = biological target: CAMKII; settings: read-out: Potency, Ki, CAMKII; cited from earlier work
[6] = biological target: EGF receptor (Homo sapiens, UniProt P00533); settings: read-out: Potency, IC50, EGF receptor; cited from earlier work
Chain of EGF receptor (P00533 25-1210): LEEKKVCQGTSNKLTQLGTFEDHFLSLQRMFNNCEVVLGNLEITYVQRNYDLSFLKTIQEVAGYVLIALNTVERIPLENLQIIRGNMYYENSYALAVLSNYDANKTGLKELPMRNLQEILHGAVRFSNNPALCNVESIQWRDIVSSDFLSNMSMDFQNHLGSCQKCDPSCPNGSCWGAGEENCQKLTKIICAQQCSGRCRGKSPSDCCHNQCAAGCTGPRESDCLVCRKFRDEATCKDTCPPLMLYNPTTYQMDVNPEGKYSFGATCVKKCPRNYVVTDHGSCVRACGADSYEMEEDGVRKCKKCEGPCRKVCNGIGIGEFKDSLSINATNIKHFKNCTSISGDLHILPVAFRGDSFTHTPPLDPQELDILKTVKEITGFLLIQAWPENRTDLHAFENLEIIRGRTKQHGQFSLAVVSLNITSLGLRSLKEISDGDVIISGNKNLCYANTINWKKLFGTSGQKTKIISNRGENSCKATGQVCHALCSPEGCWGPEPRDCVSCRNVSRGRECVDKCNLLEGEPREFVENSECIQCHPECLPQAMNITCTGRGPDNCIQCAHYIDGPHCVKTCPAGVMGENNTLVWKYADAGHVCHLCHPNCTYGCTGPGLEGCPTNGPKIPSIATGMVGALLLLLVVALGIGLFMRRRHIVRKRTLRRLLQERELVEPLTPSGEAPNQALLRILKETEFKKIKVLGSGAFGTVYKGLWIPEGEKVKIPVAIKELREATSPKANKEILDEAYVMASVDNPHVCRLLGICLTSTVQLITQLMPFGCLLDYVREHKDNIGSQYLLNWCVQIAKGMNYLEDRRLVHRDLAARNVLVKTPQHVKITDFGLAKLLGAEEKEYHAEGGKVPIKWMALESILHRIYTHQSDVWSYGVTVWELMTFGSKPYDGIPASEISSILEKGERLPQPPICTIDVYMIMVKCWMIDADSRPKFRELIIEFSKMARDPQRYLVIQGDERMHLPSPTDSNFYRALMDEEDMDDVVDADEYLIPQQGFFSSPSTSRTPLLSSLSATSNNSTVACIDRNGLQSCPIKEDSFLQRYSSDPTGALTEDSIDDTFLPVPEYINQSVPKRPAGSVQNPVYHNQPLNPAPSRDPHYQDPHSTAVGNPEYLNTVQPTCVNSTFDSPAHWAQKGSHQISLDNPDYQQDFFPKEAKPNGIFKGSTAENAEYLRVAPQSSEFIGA

[7] = biological target: p60^c-src (Homo sapiens, UniProt P12931); settings: read-out: Potency, IC50, p60^c-src; cited from earlier work
Chain of p60^c-src (P12931 whole entry): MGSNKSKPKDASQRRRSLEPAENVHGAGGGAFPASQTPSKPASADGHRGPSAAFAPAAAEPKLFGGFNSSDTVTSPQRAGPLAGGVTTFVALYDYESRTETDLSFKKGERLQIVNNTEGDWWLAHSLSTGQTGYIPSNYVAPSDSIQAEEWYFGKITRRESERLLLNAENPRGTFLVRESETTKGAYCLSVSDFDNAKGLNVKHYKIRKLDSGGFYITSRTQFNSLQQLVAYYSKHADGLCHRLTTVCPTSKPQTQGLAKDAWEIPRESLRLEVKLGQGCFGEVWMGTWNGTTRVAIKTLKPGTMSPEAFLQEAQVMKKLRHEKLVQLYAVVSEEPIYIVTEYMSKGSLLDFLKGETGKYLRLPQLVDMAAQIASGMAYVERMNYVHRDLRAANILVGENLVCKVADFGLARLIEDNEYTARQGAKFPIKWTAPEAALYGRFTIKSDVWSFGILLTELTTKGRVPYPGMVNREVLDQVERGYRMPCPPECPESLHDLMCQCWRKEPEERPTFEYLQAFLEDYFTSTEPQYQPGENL

[8] = tested on: P19 neurons; assay: Post-treatment time course of neuroprotection in P19 neurons (delayed neuroprotection); format: cell-based, murine; settings: compound added after glutamate challenge
Source text: Time-course of efficacy is an extremely relevant parameter for a potential neuroprotective therapeutic agent, since the therapeutic would need to be administered hours to days after an ischemic event and still retain efficacy.

[9] = biological target: T1, PKG (Homo sapiens, UniProt Q13976); settings: read-out: Potency, IC50, PKG; cited from earlier work
T1 sequence (Q13976 1-671): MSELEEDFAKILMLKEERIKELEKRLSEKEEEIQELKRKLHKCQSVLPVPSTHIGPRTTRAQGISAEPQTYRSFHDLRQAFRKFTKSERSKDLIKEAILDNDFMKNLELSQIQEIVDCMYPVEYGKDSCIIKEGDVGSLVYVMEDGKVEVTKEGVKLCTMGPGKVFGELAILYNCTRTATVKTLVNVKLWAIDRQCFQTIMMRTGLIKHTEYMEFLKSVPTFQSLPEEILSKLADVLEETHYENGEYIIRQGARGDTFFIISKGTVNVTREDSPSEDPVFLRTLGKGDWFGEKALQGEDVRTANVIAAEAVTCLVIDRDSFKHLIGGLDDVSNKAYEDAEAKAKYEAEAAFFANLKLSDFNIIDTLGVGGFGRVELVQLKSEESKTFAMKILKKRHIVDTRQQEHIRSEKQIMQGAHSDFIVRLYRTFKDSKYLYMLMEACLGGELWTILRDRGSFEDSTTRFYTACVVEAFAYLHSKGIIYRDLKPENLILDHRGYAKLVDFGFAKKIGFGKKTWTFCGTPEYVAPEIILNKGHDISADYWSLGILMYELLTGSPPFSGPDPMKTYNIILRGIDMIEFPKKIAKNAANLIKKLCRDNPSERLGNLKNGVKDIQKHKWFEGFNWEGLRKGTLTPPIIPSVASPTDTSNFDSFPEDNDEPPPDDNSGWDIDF

[10] = tested on: PKC; settings: read-out: Potency, IC50, PKC; cited from earlier work
[11] = biological target: PKA (Homo sapiens, UniProt P17612); settings: read-out: Potency, IC50, PKA; cited from earlier work
[12] = 3 mM glutamate, 1 mM glycine, mean of three separate curves

Chain of NMDA receptor (P35436 23-1464, other chains not shown): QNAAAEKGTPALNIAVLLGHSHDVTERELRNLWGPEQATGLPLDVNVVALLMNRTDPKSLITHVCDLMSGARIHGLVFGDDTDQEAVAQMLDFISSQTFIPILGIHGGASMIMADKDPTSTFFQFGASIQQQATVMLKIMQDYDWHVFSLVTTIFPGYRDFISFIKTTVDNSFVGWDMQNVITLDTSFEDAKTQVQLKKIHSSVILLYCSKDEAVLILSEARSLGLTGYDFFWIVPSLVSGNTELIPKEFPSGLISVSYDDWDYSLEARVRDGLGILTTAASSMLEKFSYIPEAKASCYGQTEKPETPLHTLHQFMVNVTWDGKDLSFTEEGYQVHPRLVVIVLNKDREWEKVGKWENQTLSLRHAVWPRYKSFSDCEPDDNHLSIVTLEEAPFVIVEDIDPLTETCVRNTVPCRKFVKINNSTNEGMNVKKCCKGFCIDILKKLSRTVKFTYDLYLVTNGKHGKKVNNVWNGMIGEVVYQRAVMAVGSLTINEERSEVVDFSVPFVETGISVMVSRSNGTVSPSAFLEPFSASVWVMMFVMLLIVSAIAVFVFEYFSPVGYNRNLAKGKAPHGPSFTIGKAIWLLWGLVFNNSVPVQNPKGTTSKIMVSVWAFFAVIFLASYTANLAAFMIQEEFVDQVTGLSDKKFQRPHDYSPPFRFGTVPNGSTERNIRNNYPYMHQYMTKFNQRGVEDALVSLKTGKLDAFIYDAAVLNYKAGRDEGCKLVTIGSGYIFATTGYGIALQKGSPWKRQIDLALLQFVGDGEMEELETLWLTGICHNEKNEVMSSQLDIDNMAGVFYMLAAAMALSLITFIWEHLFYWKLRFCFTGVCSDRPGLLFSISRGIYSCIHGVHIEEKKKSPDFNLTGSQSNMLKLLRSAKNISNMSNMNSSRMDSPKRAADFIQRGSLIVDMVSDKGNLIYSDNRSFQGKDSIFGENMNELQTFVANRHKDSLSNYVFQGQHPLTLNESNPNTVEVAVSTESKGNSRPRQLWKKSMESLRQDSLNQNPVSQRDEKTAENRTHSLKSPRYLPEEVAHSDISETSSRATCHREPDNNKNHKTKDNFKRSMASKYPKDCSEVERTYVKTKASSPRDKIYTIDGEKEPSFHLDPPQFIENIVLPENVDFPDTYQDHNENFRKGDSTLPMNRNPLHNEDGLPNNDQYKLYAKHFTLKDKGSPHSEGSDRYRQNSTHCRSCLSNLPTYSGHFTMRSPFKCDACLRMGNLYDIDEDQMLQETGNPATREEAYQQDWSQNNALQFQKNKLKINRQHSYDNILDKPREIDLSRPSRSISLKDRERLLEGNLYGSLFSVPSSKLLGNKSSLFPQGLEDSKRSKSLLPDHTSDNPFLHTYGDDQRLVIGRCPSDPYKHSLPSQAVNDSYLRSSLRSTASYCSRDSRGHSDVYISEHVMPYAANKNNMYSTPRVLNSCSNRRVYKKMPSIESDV
Chain of NMDA receptor (Q01097 27-1482, other chains not shown): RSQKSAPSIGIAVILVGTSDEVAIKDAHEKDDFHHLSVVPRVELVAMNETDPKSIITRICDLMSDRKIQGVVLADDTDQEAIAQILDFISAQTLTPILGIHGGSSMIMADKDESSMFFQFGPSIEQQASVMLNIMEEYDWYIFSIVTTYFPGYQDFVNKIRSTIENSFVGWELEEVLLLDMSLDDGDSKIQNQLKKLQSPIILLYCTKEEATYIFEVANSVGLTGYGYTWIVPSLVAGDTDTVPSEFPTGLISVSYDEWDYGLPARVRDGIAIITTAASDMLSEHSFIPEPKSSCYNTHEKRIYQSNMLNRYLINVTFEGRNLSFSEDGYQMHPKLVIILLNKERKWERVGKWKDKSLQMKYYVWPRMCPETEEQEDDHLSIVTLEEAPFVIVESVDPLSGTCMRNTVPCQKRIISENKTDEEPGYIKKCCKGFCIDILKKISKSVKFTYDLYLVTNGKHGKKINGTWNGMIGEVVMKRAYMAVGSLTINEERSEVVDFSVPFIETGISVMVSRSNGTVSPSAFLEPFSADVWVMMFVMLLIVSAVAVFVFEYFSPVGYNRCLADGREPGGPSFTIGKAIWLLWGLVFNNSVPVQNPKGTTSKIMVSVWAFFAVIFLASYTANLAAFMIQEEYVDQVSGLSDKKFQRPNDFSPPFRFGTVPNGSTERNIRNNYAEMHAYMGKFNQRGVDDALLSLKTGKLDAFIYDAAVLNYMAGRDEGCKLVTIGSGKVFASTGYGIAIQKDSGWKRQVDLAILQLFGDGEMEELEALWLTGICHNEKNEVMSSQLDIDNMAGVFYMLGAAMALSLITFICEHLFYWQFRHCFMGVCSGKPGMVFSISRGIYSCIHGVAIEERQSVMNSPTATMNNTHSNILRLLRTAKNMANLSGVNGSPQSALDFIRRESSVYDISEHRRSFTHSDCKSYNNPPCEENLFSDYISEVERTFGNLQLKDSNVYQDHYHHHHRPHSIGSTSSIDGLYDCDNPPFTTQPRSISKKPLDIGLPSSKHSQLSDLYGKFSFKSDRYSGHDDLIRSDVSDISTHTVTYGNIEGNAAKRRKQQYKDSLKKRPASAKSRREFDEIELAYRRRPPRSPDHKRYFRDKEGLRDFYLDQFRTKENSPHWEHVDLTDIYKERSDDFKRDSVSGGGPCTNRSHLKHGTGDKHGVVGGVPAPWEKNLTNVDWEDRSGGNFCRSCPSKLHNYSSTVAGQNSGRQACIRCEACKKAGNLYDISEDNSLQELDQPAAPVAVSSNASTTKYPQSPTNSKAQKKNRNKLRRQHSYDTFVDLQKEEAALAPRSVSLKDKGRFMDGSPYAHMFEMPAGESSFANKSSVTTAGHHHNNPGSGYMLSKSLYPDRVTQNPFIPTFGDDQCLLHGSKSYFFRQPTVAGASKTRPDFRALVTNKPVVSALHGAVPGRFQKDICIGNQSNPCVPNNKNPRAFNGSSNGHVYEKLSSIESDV

## C[C@]12N[C@H](Cc3ccccc31)c1ccccc12 [MK-801, reference compound]
[1]
  inhibition of [3H]-MK-801 binding achieved: 100%
[2]
  Cortex + Striatum Vol. (mm^3): 205.4 ± 28.0 mm^3
  Cortex Vol. (mm^3): 135.0 ± 26.1 mm^3
  Striatum Vol. (mm^3): 70.4 ± 2.9 mm^3
[3]; 3 mM glutamate and 1 mM glycine
  Maximal protection against glutamate toxicity: close to control levels
[4]
  effect on intracellular calcium response to NMDA receptor agonists: significantly inhibited this response

## O=S(=O)(NCCNC/C=C/c1ccc(Br)cc1)c1cccc2cnccc12 [H-89]
[3]; 3 mM glutamate, 1 mM glycine
  Maximal Efficacy for Neuroprotection: <25%
[3]; [12]
  pIC50: < 5.00
[5]
  pKi: ~4.52

## O=C(O)c1cc(N(Cc2ccccc2O)Cc2cc(O)ccc2O)ccc1O [Lavendustin A]
[3]; 3 mM glutamate, 1 mM glycine
  Maximal Efficacy for Neuroprotection: <25%
[3]; [12]
  pIC50: < 5.00
[6]
  pIC50: ~7.96
[7]
  pIC50: ~6.30

## CN([C@@H](Cc1ccc(OS(=O)(=O)c2cccc3cnccc23)cc1)C(=O)N1CCN(c2ccccc2)CC1)S(=O)(=O)c1cccc2cnccc12 [KN62]
[3]; 3 mM glutamate, 1 mM glycine
  Maximal Efficacy for Neuroprotection: <10%
[3]; [12]
  IC50 for Neuroprotection [lower-upper 95% C.I.]: Ineffective
[5]
  pKi: ~6.05

## COc1cc(N)nc2[nH]c(-c3ccc(F)cc3)c(-c3ccncc3)c12 [Compound A]
[8]
  time after glutamate challenge at which efficacy was lost: 15 min

## COc1c(C[C@@H](C)OC(=O)Oc2ccc(O)cc2)c2c3c(C[C@@H](C)OC(=O)c4ccccc4)c(OC)c(=O)c4c(O)cc(OC)c(c5c(OC)cc(O)c(c1=O)c52)c43 [Calphostin C]
[3]; 3 mM glutamate, 1 mM glycine
  Maximal Efficacy for Neuroprotection: ˜50%
[3]; [12]
  pIC50: < 6.00
[9]
  pIC50: < 4.60
[10]
  pIC50: ~7.30
[7]
  pIC50: < 4.30
[11]
  pIC50: < 4.30
